Data taken from the NIST ThermoML archive (doi:10.1021/je0601255).
± gives the expanded uncertainty stated by the source.

Assay: xn = mol fraction of the nth substance listed
Details: 101 kPa, Liquid; for viscosity: Capillary tube (Ostwald / Ubbelohde) method; for mass density: Pycnometric method

C=C(C)C(=O)OCCO [2-hydroxyethyl 2-methyl-2-propenoate] + CCCCO
Details	mass density, 288.15 K [kg/m3]	mass density, 298.15 K [kg/m3]	mass density, 308.15 K [kg/m3]	mass density, 318.15 K [kg/m3]	viscosity, 288.15 K [mPa·s]	viscosity, 298.15 K [mPa·s]	viscosity, 308.15 K [mPa·s]	viscosity, 318.15 K [mPa·s]
x2 = 0	1074.7 ± 2.4	1067.1 ± 2.4	1057.7 ± 2.4	1048.6 ± 2.4	8.234 ± 0.19	5.784 ± 0.13	4.194 ± 0.096	3.181 ± 0.073
x2 = 0.1	1054.5 ± 2.4	1047.1 ± 2.3	1037.9 ± 2.3	1029.1 ± 2.3	7.303 ± 0.17	5.188 ± 0.12	3.822 ± 0.087	2.963 ± 0.068
x2 = 0.2	1033.3 ± 2.3	1025.9 ± 2.3	1016.9 ± 2.3	1008.3 ± 2.2	6.437 ± 0.14	4.643 ± 0.11	3.432 ± 0.077	2.692 ± 0.061
x2 = 0.3	1010.9 ± 2.2	1003.6 ± 2.2	994.8 ± 2.2	986.3 ± 2.2	5.681 ± 0.13	4.154 ± 0.093	3.109 ± 0.07	2.43 ± 0.054
x2 = 0.4	987.3 ± 2.1	980 ± 2.1	971.3 ± 2.1	963 ± 2.1	5.118 ± 0.11	3.738 ± 0.083	2.829 ± 0.063	2.222 ± 0.049
x2 = 0.5	962.2 ± 2.1	955.1 ± 2.1	946.6 ± 2	938.3 ± 2	4.633 ± 0.1	3.398 ± 0.075	2.598 ± 0.057	2.051 ± 0.045
x2 = 0.6	935.7 ± 2	928.6 ± 2	920.3 ± 2	912.1 ± 2	4.195 ± 0.092	3.092 ± 0.068	2.399 ± 0.052	1.9 ± 0.042
x2 = 0.7	907.6 ± 1.9	900.6 ± 1.9	892.4 ± 1.9	884.4 ± 1.9	3.833 ± 0.083	2.834 ± 0.062	2.212 ± 0.048	1.759 ± 0.038
x2 = 0.8	877.7 ± 1.8	870.8 ± 1.8	862.9 ± 1.8	855 ± 1.8	3.534 ± 0.076	2.666 ± 0.057	2.089 ± 0.045	1.657 ± 0.036
x2 = 0.9	846 ± 1.8	839.2 ± 1.8	831.5 ± 1.7	823.8 ± 1.7	3.321 ± 0.071	2.583 ± 0.055	2.018 ± 0.043	1.609 ± 0.035

C=C(C)C(=O)O [2-methyl-2-propenoic acid] + CCCCO
Details	mass density, 288.15 K [kg/m3]	mass density, 298.15 K [kg/m3]	mass density, 308.15 K [kg/m3]	mass density, 318.15 K [kg/m3]	viscosity, 288.15 K [mPa·s]	viscosity, 298.15 K [mPa·s]	viscosity, 308.15 K [mPa·s]	viscosity, 318.15 K [mPa·s]
x2 = 0	1018.3 ± 2.1	1009.5 ± 2.1	999.4 ± 2.1	989.2 ± 2.1	1.447 ± 0.031	1.267 ± 0.027	1.078 ± 0.023	0.945 ± 0.02
x2 = 0.1	996.3 ± 2.1	987.7 ± 2.1	978 ± 2	968.1 ± 2	1.632 ± 0.035	1.4 ± 0.03	1.174 ± 0.025	1.015 ± 0.022
x2 = 0.2	974.7 ± 2	966.5 ± 2	957.4 ± 2	948.1 ± 2	1.818 ± 0.039	1.534 ± 0.033	1.275 ± 0.027	1.09 ± 0.023
x2 = 0.3	954.3 ± 2	946.3 ± 2	937.7 ± 2	928.7 ± 1.9	2.009 ± 0.043	1.672 ± 0.036	1.377 ± 0.029	1.16 ± 0.025
x2 = 0.4	934.2 ± 1.9	926.6 ± 1.9	918.1 ± 1.9	909.3 ± 1.9	2.2 ± 0.047	1.81 ± 0.039	1.476 ± 0.032	1.227 ± 0.026
x2 = 0.5	914.2 ± 1.9	907 ± 1.9	898.6 ± 1.9	890.1 ± 1.9	2.392 ± 0.051	1.947 ± 0.042	1.574 ± 0.034	1.294 ± 0.028
x2 = 0.6	894.2 ± 1.9	887.4 ± 1.8	879 ± 1.8	870.6 ± 1.8	2.576 ± 0.055	2.079 ± 0.044	1.667 ± 0.036	1.355 ± 0.029
x2 = 0.7	874.1 ± 1.8	867.3 ± 1.8	859.1 ± 1.8	851 ± 1.8	2.756 ± 0.059	2.204 ± 0.047	1.756 ± 0.037	1.413 ± 0.03
x2 = 0.8	853.7 ± 1.8	847 ± 1.8	839.2 ± 1.7	831.4 ± 1.7	2.935 ± 0.062	2.329 ± 0.05	1.842 ± 0.039	1.466 ± 0.031
x2 = 0.9	832.9 ± 1.7	826.7 ± 1.7	819.1 ± 1.7	811.5 ± 1.7	3.111 ± 0.066	2.453 ± 0.052	1.925 ± 0.041	1.515 ± 0.032

C=C(C)C(=O)OCc1ccccc1 [benzyl methacrylate] + CCCCO
Details	mass density, 288.15 K [kg/m3]	mass density, 298.15 K [kg/m3]	mass density, 308.15 K [kg/m3]	mass density, 318.15 K [kg/m3]	viscosity, 288.15 K [mPa·s]	viscosity, 298.15 K [mPa·s]	viscosity, 308.15 K [mPa·s]	viscosity, 318.15 K [mPa·s]
x2 = 0	1041.2 ± 2.4	1034.7 ± 2.3	1025.8 ± 2.3	1017 ± 2.3	2.871 ± 0.066	2.302 ± 0.053	1.885 ± 0.043	1.58 ± 0.036
x2 = 0.1	1027.8 ± 2.3	1021.3 ± 2.3	1012.5 ± 2.3	1003.9 ± 2.2	2.655 ± 0.06	2.123 ± 0.048	1.746 ± 0.04	1.455 ± 0.033
x2 = 0.2	1013.3 ± 2.2	1006.8 ± 2.2	998.1 ± 2.2	989.5 ± 2.2	2.519 ± 0.057	2.021 ± 0.046	1.656 ± 0.037	1.388 ± 0.031
x2 = 0.3	997.5 ± 2.2	990.9 ± 2.2	982.3 ± 2.2	973.8 ± 2.1	2.462 ± 0.055	1.958 ± 0.044	1.605 ± 0.036	1.342 ± 0.03
x2 = 0.4	979.9 ± 2.1	973.3 ± 2.1	964.8 ± 2.1	956.4 ± 2.1	2.41 ± 0.053	1.919 ± 0.043	1.568 ± 0.035	1.308 ± 0.029
x2 = 0.5	960.3 ± 2.1	953.7 ± 2.1	945.3 ± 2	937 ± 2	2.384 ± 0.052	1.868 ± 0.041	1.525 ± 0.034	1.272 ± 0.028
x2 = 0.6	938.3 ± 2	931.6 ± 2	923.4 ± 2	915.2 ± 2	2.375 ± 0.052	1.834 ± 0.04	1.505 ± 0.033	1.247 ± 0.027
x2 = 0.7	913.2 ± 1.9	906.6 ± 1.9	898.5 ± 1.9	890.4 ± 1.9	2.427 ± 0.053	1.863 ± 0.04	1.508 ± 0.033	1.244 ± 0.027
x2 = 0.8	884.5 ± 1.9	877.9 ± 1.8	869.9 ± 1.8	862 ± 1.8	2.51 ± 0.054	1.982 ± 0.043	1.59 ± 0.034	1.302 ± 0.028
x2 = 0.9	851.3 ± 1.8	844.6 ± 1.8	836.8 ± 1.8	829.1 ± 1.7	2.704 ± 0.058	2.168 ± 0.046	1.727 ± 0.037	1.394 ± 0.03
